Data on six compounds can be found in article PMC4929166, “Pharmacological evaluation of synthetic cannabinoids identified as constituents of spice” (Forensic Toxicology, 2016).

Structures are written as SMILES. Where two headings read alike, the source gives them in different places. Some results are limits rather than exact numbers.

Test [1] concerns the target T1, human GPR55 (Homo sapiens, UniProt Q9Y2T6).
T1 construct: β-galactosidase enzyme fragment (PathHunter complementation tag)
As to conditions: read-out: Human GPR55 IC50; ref [48]; cited from earlier work.

In test [2] the target is T2, human GPR18 (Homo sapiens, UniProt Q14330).
T2 construct: β-galactosidase enzyme fragment (PathHunter complementation tag)
T2 sequence (Q14330 1-331): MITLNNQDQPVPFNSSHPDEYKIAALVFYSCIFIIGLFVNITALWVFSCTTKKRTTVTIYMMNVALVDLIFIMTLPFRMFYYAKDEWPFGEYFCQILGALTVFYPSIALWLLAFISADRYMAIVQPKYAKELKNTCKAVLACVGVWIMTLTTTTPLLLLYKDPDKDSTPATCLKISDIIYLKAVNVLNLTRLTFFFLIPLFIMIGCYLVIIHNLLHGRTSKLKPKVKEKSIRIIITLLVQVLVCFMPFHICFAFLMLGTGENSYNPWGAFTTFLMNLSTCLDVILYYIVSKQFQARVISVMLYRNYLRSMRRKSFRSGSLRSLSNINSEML
Further details: method as in PMID 22916707. To be noted: read-out: Human GPR18 IC50; ref [47]; cited from earlier work.

The target in test [3] is CB2. As to conditions: Fig. 1, standard agonists; ref [14]; cited from earlier work.
Test [4] has as its target CB1. To be noted: Fig. 1, standard agonists; ref [14]; cited from earlier work.
Test [5] has as its target T3, CB2 receptor (Homo sapiens, UniProt P34972). The experiment in a line: biochemical. In kind it is binding. More on the design: expressed in transfected cells; host or cells: CHO cells (membrane preparation).
The target in test [6] is Human CB2. To be noted: cited from earlier work; for Ki: read-out: Ki Human CB2 (literature) (converted).
Test [7] concerns the target T4, CB1 receptor (Homo sapiens, UniProt P21554). The experiment in a line: biochemical. Further details: expressed in transfected cells; host or cells: CHO cells (membrane preparation). In kind it is binding.
The target in test [8] is T2, human GPR18. Briefly: β-Arrestin recruitment assay (PathHunter) at GPR18. In kind it is cell-based. To be noted: for Human GPR18 % activation: percent in brackets beside EC50 >10 µM; for Human GPR18 % inhibition: percent in brackets beside IC50. The method, then: (§1) Recruitment of β-arrestin to the respective receptor was detected by using β-galactosidase enzyme fragment complementation technology (β-arrestin PathHunter™ assay, DiscoverX, Fremont, CA, USA) as previously described. Data were obtained from three independent experiments, performed in duplicates. Data were analyzed using Graph Pad Prism Version 4.02 (San Diego, CA, USA).
For orientation: Activated receptors often draw arrestin, which recruitment assays turn into a signal.

Test [9] deals with T1, human GPR55. The experiment in a line: β-Arrestin recruitment assay (PathHunter) at GPR55. In kind it is cell-based. To be noted: for IC50: antagonist mode; for Human GPR55 % activation: percent in brackets beside EC50 >10 µM; for Human GPR55 % inhibition: percent in brackets beside IC50. The method, then:
as §1

Test [10] addresses Human CB1. To be noted: read-out: Ki Human CB1 (literature) (converted), cited from earlier work.
Test [11] has as its target T4, CB1 receptor. The experiment in a line: cell-based. More on the design: expressed in transfected cells; host or cells: CHO cells. In kind it is cell-based.
The target in test [12] is T3, CB2 receptor. Briefly: cAMP accumulation assay in CHO cells expressing CB2. In kind it is cell-based. Further details: expressed in transfected cells; host or cells: CHO cells. As to conditions: for efficacy at CB2 receptor (in words): cAMP accumulation, forskolin 10 µM, test concentration 1 µM or 10 µM, normalized to CP55,940.
Where [13] appears, read: Table S1, selectivity index from Ki values.
The mark [14] stands for this setting: versus 0.1 nM [3H]CP55,940, CHO cell membranes, mean ± SEM of three to five experiments, read-out: Ki ± SEM Human CB2.
Where [15] appears, read: versus 0.1 nM [3H]CP55,940, CHO cell membranes, mean ± SEM of three to five experiments, read-out: Ki ± SEM Human CB1.
[16] abbreviates: Human GPR55 IC50, β-arrestin assay.

T4 sequence (P21554 whole entry, the tested form may be a part): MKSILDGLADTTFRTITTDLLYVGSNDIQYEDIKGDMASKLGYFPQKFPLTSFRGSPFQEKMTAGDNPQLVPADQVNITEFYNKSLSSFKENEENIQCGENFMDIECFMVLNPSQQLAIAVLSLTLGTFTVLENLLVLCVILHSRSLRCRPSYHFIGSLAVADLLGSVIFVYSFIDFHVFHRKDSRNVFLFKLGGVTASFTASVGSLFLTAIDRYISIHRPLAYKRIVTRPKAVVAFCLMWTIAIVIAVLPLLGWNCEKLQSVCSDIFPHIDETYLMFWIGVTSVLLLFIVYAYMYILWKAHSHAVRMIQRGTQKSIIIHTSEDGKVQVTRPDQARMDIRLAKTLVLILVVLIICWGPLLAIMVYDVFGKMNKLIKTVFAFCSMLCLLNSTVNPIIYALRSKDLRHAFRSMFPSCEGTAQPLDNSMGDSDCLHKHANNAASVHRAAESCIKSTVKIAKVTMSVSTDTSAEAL
T3 sequence (P34972 whole entry): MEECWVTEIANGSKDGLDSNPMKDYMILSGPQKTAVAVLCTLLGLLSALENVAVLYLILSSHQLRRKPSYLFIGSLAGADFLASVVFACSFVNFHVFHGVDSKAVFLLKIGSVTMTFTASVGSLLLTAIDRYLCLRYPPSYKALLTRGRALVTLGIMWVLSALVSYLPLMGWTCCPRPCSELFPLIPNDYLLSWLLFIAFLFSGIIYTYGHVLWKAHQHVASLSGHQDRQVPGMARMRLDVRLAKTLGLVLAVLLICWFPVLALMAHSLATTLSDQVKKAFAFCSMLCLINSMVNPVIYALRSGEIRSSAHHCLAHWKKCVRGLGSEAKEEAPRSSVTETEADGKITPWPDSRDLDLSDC
T1 sequence (Q9Y2T6 whole entry, the tested form may be a part): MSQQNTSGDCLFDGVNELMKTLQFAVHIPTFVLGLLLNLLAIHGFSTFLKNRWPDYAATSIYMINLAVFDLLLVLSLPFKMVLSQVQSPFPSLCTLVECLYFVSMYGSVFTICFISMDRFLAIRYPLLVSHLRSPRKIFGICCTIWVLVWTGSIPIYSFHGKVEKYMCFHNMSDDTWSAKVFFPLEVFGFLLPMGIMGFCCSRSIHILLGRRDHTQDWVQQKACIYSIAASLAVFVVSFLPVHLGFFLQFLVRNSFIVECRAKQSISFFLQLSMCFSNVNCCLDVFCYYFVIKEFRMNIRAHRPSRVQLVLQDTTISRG

For orientation: IC50 means the concentration at which inhibition is half-maximal. On to `CCCCCCC(C)(C)c1ccc([C@@H]2CC(O)CC[C@H]2CCCO)c(O)c1` (single isomer, unassigned; (-)) [Compound 2, (−)-cis-3-[2-hydroxy-4-(1,1-dimethylheptyl)phenyl]-trans-4-(3-hydroxypropyl)cyclohexanol], for which the figures for the half-inhibitory concentration (IC50) in test [1] and in [2] were 1610 nM and 5990 nM, respectively.
One may read the Ki as the dissociation constant of the complex between target and ligand, obtained from inhibition or displacement. Regarding `CCCCCn1cc(C(=O)c2cccc3ccccc23)c2ccccc21` [Compound 3, JWH-018], the values for the Ki in test [3] and in test [4] were 2.9 nM and 9 nM, respectively.
Usually EC50 stands for the concentration giving half of the maximal effect. As for `CCCCCn1cc(C(=O)C2C(C)(C)C2(C)C)c2ccccc21` [Compound 37, UR-144], the “CB2 selectivity Ki CB1/KiCB2” value in test [5] (setting [13]) is given as 37.5. For the same compound, the inhibition constant (Ki) is 1.49 ± 0.25 nM in [5] (setting [14]), 1.8 nM in test [6] (ref Frost et al. [40]), 55.9 ± 6.5 nM in test [7] (setting [15]) and 150 nM in [10] (ref Frost et al. [40]). Further, the concentration for a half-maximal effect (EC50) in test [8] and in test [9] was greater than 10000 nM each time. Further, the IC50 was greater than 10000 nM in test [8] and 6700 ± 1650 nM in test [9] (setting [16]). For the same compound, in test [8] (β-arrestin assay), the “Human GPR18 % activation” value was 17%. The “Human GPR18 % inhibition” value in test [8] (β-arrestin assay) turned out to be 14%. In addition, the “Human GPR55 % activation” value in [9] (β-arrestin assay) is given as −5%.
Turning to `CC1(C)C(C(=O)c2cn(CCCC(F)(F)F)c3ccccc23)C1(C)C` [Compound 41, XLR-12], in test [11] (cAMP accumulation, forskolin 10 µM, test concentration 1 µM or 10 µM, normalized to CP55,940), the “efficacy at CB1 receptor (in words)” value is “lower efficacy than Δ^9-THC”. The EC50 in test [11] (full concentration response curve, read-out: CB1: EC50, inhibition of cAMP accumulation) was 11.7 ± 6.5 nM; in test [8], greater than 10000 nM; in test [9], greater than 10000 nM; in test [12], 0.391 nM. In addition, the “CB2 selectivity Ki CB1/KiCB2” value in test [5] (setting [13]) is 52.6. Further, the inhibition constant (Ki) is 0.831 ± 0.331 nM in test [5] (setting [14]), 0.09 nM in test [6] (ref Frost et al. [40]), 43.7 ± 5.9 nM in [7] (setting [15]) and 15 nM in test [10] (ref Frost et al. [40]). In addition, in [6] (ref [40]), the CB2-selectivity previously reported is recorded as 167 fold. Besides, the IC50 is greater than 10000 nM in test [8] and 4560 ± 1970 nM in test [9] (setting [16]). The “Human GPR18 % activation” value in test [8] (β-arrestin assay) is recorded as 27%. For the same compound, the “Human GPR18 % inhibition” value in [8] (β-arrestin assay) is reported as 13%. Besides, the “Human GPR55 % activation” value in [9] (β-arrestin assay) is −5%. The “CB2-selectivity in functional assay (EC50 CB1 vs CB2)” value in [12] (cAMP accumulation EC50 values) was determined as 30 fold. For the same compound, the “efficacy at CB2 receptor (in words)” value in test [12] was “lower efficacy than Δ^9-THC”.
`CN1CCCCC1Cn1cc(C(=O)C2C(C)(C)C2(C)C)c2ccccc21` (centres unmarked) [Compound 43, AB005]: the “efficacy at CB1 receptor (in words)” value in test [11] is reported as “lower efficacy than Δ^9-THC”. Besides, in [5], the “CB2 selectivity Ki CB1/KiCB2” value amounted to 57.1. Besides, the Ki was 1.04 nM in [5], 0.48 nM in test [6] (ref Frost et al. [40]), 59.4 nM in [7] and 5.5 nM in [10] (ref Frost et al. [40]). For the same compound, the EC50 in test [8] and in test [9] was greater than 10000 nM each time. For the same compound, the half-inhibitory concentration (IC50) in [8] and in test [9] (setting [16]) was greater than 10000 nM throughout. Also, the “Human GPR18 % activation” value in test [8] (β-arrestin assay) is given as −38%. The “Human GPR18 % inhibition” value in test [8] (β-arrestin assay) is −2%. The “Human GPR55 % activation” value in [9] (β-arrestin assay) was determined as 16%. In addition, the “Human GPR55 % inhibition” value in test [9] (β-arrestin assay) was 39%. Moreover, in test [12], the “efficacy at CB2 receptor (in words)” value is “lower efficacy than Δ^9-THC”.
As to `COc1cccc2c(C(=O)C3C4(C)CCC(C4)C3(C)C)c(C)n(CCN3CCOCC3)c12` (centres unmarked) [Compound 48, MN-25], the “CB2 selectivity Ki CB1/KiCB2” value in test [5] (setting [13]) is recorded as 282. Besides, the inhibition constant Ki in [5] (setting [14]) is 2.77 ± 1.59 nM; in [6] (ref Wroblenski et al.[39]), 11 nM; in test [7] (setting [15]) it was 780 ± 66 nM; in [10] (ref Wroblenski et al.[39]), 245 nM. The EC50 was greater than 10000 nM in [8] (read-out: Human GPR18 EC50, β-arrestin assay, agonist mode) and greater than 10000 nM in [9] (read-out: Human GPR55 EC50, β-arrestin assay, agonist mode). The concentration for half-maximal inhibition (IC50) in test [8] (read-out: Human GPR18 IC50, β-arrestin assay, antagonist mode) was greater than 10000 nM; in test [9] (read-out: Human GPR55 IC50, β-arrestin assay) it was greater than 10000 nM. Also, the “Human GPR18 % activation” value in [8] (β-arrestin assay) is −12%. In addition, the “Human GPR18 % inhibition” value in test [8] (β-arrestin assay) is given as 30%. In addition, the “Human GPR55 % activation” value in test [9] (β-arrestin assay) was −8%. Besides, in test [9] (β-arrestin assay), the “Human GPR55 % inhibition” value came out at 47%.
